Results on 32 molecules are retold here after patent publication US8629143B2, “Potassium channel modulators” (AbbVie Inc., priority 2009, dated 2014).

This assay deals with T1, KCNQ 2/3 channels (HEK293 cells stably expressing human KCNQ2 and KCNQ3 subunits) (Homo sapiens, UniProt O43525+O43526).
T1 construct: expressed in transfected cells; host or cells: HEK293
Put plainly: KCNQ2/3 channel activation, thallium flux FLIPR assay with BTC-AM dye. It is filed as cell-based. The note with it: for Emax: HEK293, maximum response relative to the response produced by 10 μM retigabine (set at 100%), read-out: Max. %; for EC50: HEK293 cells expressing human KCNQ2 and KCNQ3, thallium flux, FLIPR. The gist of the method: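 HEK293 cells stably expressing human KCNQ2/KCNQ3 were loaded with BTC-AM (3 μg/mL, 2 h, RT) and preincubated with compound for 4 min in pH 7.3 gluconate buffer containing 0.1 mM ouabain. Flux was triggered by 6 mM TlNO3/10 mM K2SO4 and read for 3 min; EC50 came from summed responses over basal, with maximum relative to 10 μM retigabine (100%).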

As a reminder, the EC50 is the concentration that produces a half-maximal response. For the molecule `O=C(CC12CC3CC(CC(C3)C1)C2)Nn1nc(-c2ccc(Cl)cc2)c2ccccc2c1=O` [Example 116, 2-(adamantan-1-yl)-N-[4-(4-chlorophenyl)-1-oxophthalazin-2(1H)-yl]acetamide], the Emax is 132% and the 50% effective concentration (EC50) is under 100 nM.

As to `O=C(Cc1cc(F)cc(F)c1)Nn1nc(-c2ccc(Cl)cc2)c2ccccc2c1=O` [Example 118, N-[4-(4-chlorophenyl)-1-oxophthalazin-2(1H)-yl]-2-(3,5-difluorophenyl)acetamide], the Emax stood at 128% and the EC50 is under 100 nM.

In the case of `O=C(CC1(c2ccccc2)CCCC1)Nn1nc(-c2ccc(Cl)cc2)c2ccccc2c1=O` [Example 119, N-[4-(4-chlorophenyl)-1-oxophthalazin-2(1H)-yl]-2-(1-phenylcyclopentyl)acetamide], the Emax was 12% and the 50% effective concentration (EC50) was over 10000 nM.

For the molecule `O=C(Cc1ccc2ccccc2c1)Nn1nc(-c2ccc(Cl)cc2)c2ccccc2c1=O` [Example 121, N-[4-(4-chlorophenyl)-1-oxophthalazin-2(1H)-yl]-2-(2-naphthyl)acetamide], the Emax came out at 201% and the EC50 lay within 1000 to 10000 nM.

For the molecule `O=C(CCC(F)(F)F)Nn1nc(-c2ccc(Cl)cc2)c2ccccc2c1=O` [Example 123, N-[4-(4-chlorophenyl)-1-oxophthalazin-2(1H)-yl]-4,4,4-trifluorobutanamide], the Emax is 48% and the concentration for a half-maximal effect (EC50) lay in the range of 500 to 1000 nM.

Regarding `O=C(CC(F)(F)F)Nn1nc(-c2ccc(Cl)cc2)c2ccccc2c1=O` [Example 124, N-[4-(4-chlorophenyl)-1-oxophthalazin-2(1H)-yl]-3,3,3-trifluoropropanamide], the Emax turned out to be 33% and the EC50 was 1000 to 10000 nM.

In the case of `O=C(CC12CC3CC(CC(C3)C1)C2)Nn1nc(-c2cccc(Cl)c2)c2ccccc2c1=O` [Example 126, 2-(adamantan-1-yl)-N-[4-(3-chlorophenyl)-1-oxophthalazin-2(1H)-yl]acetamide], the Emax worked out at 153% and the EC50 lay in the range of 100 to 500 nM.

On to `O=C(Cc1ccc(Cl)cc1)Nn1nc(-c2cccc(Cl)c2)c2ccccc2c1=O` [Example 127, 2-(4-chlorophenyl)-N-[4-(3-chlorophenyl)-1-oxophthalazin-2(1H)-yl]acetamide], for which the Emax turned out to be 101% and the half-maximal effective concentration (EC50) fell in the range of 100 to 500 nM.

For `O=C(Cc1cc(F)cc(F)c1)Nn1nc(-c2cccc(Cl)c2)c2ccccc2c1=O` [Example 128, N-[4-(3-chlorophenyl)-1-oxophthalazin-2(1H)-yl]-2-(3,5-difluorophenyl)acetamide], the Emax turned out to be 140% and the EC50 lay in the range of 100 to 500 nM.

Consider `O=C(C[C@@H]1C[C@@H]2CC[C@H]1C2)Nn1nc(-c2ccc(F)cc2)c2ccccc2c1=O` [Example 129, 2-[(1S,2S,4R)-bicyclo[2.2.1]hept-2-yl]-N-[4-(4-fluorophenyl)-1-oxophthalazin-2(1H)-yl]acetamide], for which the Emax is 143% and the half-maximal effective concentration (EC50) was under 100 nM.

Take `O=C(C[C@@H]1C[C@@H]2C=C[C@H]1C2)Nn1nc(-c2ccc(F)cc2)c2ccccc2c1=O` [Example 130, 2-[(1S,2S,4S)-bicyclo[2.2.1]hept-5-en-2-yl]-N-[4-(4-fluorophenyl)-1-oxophthalazin-2(1H)-yl]acetamide]: the Emax is 156% and the EC50 was under 100 nM.

On to `O=C(Cc1ccc(Cl)cc1)Nn1nc(-c2ccc(F)cc2)c2ccccc2c1=O` [Example 132, 2-(4-chlorophenyl)-N-[4-(4-fluorophenyl)-1-oxophthalazin-2(1H)-yl]acetamide], for which the Emax was 123% and the concentration giving a half-maximal response (EC50) is 100 to 500 nM.

In the case of `O=C(Cc1cc(F)cc(F)c1)Nn1nc(-c2ccc(F)cc2)c2ccccc2c1=O` [Example 133, 2-(3,5-difluorophenyl)-N-[4-(4-fluorophenyl)-1-oxophthalazin-2(1H)-yl]acetamide], the Emax worked out at 144% and the EC50 was 100 to 500 nM.

Take `Cc1ccc(-c2nn(NC(=O)Cc3ccc(Cl)cc3)c(=O)c3ccccc23)cc1` [Example 135, 2-(4-chlorophenyl)-N-[4-(4-methylphenyl)-1-oxophthalazin-2(1H)-yl]acetamide]: the Emax is 95% and the concentration for a half-maximal effect (EC50) was in the range of 100 to 500 nM.

In the case of `Cc1ccc(-c2nn(NC(=O)Cc3cc(F)cc(F)c3)c(=O)c3ccccc23)cc1` [Example 136, 2-(3,5-difluorophenyl)-N-[4-(4-methylphenyl)-1-oxophthalazin-2(1H)-yl]acetamide], the Emax came to 130% and the 50% effective concentration (EC50) is under 100 nM.

As to `Cc1ccc(-c2nn(NC(=O)C[C@@H]3CC[C@H]4C[C@@H]3C4(C)C)c(=O)c3ccccc23)cc1` [Example 137, 2-[(1S,2S,5S)-6,6-dimethylbicyclo[3.1.1]hept-2-yl]-N-[4-(4-methylphenyl)-1-oxophthalazin-2(1H)-yl]acetamide], the Emax was found to be 95% and the EC50 lay in the range of 100 to 500 nM.

For `Cc1ccc(-c2nn(NC(=O)CC34CC5CC(CC(C5)C3)C4)c(=O)c3ccccc23)cc1` [Example 138, 2-(adamantan-1-yl)-N-[4-(4-methylphenyl)-1-oxophthalazin-2(1H)-yl]acetamide], the Emax worked out at 129% and the EC50 was under 100 nM.

For the molecule `O=C(CC1(C(F)(F)F)CCCC1)Nn1nc(Cc2ccccc2)c2ccccc2c1=O` [Example 139, N-(4-benzyl-1-oxophthalazin-2(1H)-yl)-2-[1-(trifluoromethyl)cyclopentyl]acetamide], the Emax was 20% and the concentration for a half-maximal effect (EC50) was over 10000 nM.

In the case of `CC(C)(CC(=O)Nn1nc(Cc2ccccc2)c2ccccc2c1=O)c1ccccc1` [Example 140, N-(4-benzyl-1-oxophthalazin-2(1H)-yl)-3-methyl-3-phenylbutanamide], the Emax was 126% and the EC50 is under 100 nM.

Turning to `O=C(Cc1ccc(Cl)cc1)Nn1nc(Cc2ccccc2)c2ccccc2c1=O` [Example 142, N-(4-benzyl-1-oxophthalazin-2(1H)-yl)-2-(4-chlorophenyl)acetamide], the Emax is 109% and the concentration for a half-maximal effect (EC50) was under 100 nM.

With `O=C(Cc1cc(F)cc(F)c1)Nn1nc(Cc2ccccc2)c2ccccc2c1=O` [Example 143, N-(4-benzyl-1-oxophthalazin-2(1H)-yl)-2-(3,5-difluorophenyl)acetamide], the Emax came to 128% and the EC50 was under 100 nM.

Consider `O=C(Cc1ccc(Cl)cc1)Nn1nc(Cc2ccc(Cl)cc2)c2ccccc2c1=O` [Example 145, N-[4-(4-chlorobenzyl)-1-oxophthalazin-2(1H)-yl]-2-(4-chlorophenyl)acetamide], for which the Emax came out at 101% and the concentration giving a half-maximal response (EC50) was 100 to 500 nM.

For the molecule `O=C(Cc1cc(F)cc(F)c1)Nn1nc(Cc2ccc(Cl)cc2)c2ccccc2c1=O` [Example 146, N-[4-(4-chlorobenzyl)-1-oxophthalazin-2(1H)-yl]-2-(3,5-difluorophenyl)acetamide], the Emax stood at 83% and the EC50 lay within 100 to 500 nM.

For `O=C(C[C@@H]1C[C@@H]2CC[C@H]1C2)Nn1nc(-c2ccc(C(F)(F)F)cc2)c2ccccc2c1=O` [Example 147, 2-[(1S,2S,4R)-bicyclo[2.2.1]hept-2-yl]-N-{1-oxo-4-[4-(trifluoromethyl)phenyl]phthalazin-2(1H)-yl}acetamide], the Emax was determined as 154% and the EC50 was 100 to 500 nM.

`CC(C)(CC(=O)Nn1nc(-c2ccc(C(F)(F)F)cc2)c2ccccc2c1=O)c1ccccc1` [Example 148, 3-methyl-N-{1-oxo-4-[4-(trifluoromethyl)phenyl]phthalazin-2(1H)-yl}-3-phenylbutanamide]: the Emax came to 114% and the concentration for a half-maximal effect (EC50) lay within 100 to 500 nM.

In the case of `O=C(CC12CC3CC(CC(C3)C1)C2)Nn1nc(-c2ccc(C(F)(F)F)cc2)c2ccccc2c1=O` [Example 149, 2-(adamantan-1-yl)-N-{1-oxo-4-[4-(trifluoromethyl)phenyl]phthalazin-2(1H)-yl}acetamide], the Emax came out at 133% and the EC50 was under 100 nM.

As for `COc1ccc(-c2nn(NC(=O)CC3CCC(C)CC3)c(=O)c3ccccc23)cc1` (stereo not shown) [Example 152, N-[4-(4-methoxyphenyl)-1-oxophthalazin-2(1H)-yl]-2-(4-methylcyclohexyl)acetamide], the Emax came out at 114% and the EC50 lay in the range of 100 to 500 nM.

Regarding `COc1ccc(-c2nn(NC(=O)Cc3cc(F)cc(F)c3)c(=O)c3ccccc23)cc1` [Example 153, 2-(3,5-difluorophenyl)-N-[4-(4-methoxyphenyl)-1-oxophthalazin-2(1H)-yl]acetamide], the Emax amounted to 143% and the EC50 lay within 500 to 1000 nM.

For `COc1ccc(-c2nn(NC(=O)CC34CC5CC(CC(C5)C3)C4)c(=O)c3ccccc23)cc1` [Example 154, 2-(adamantan-1-yl)-N-[4-(4-methoxyphenyl)-1-oxophthalazin-2(1H)-yl]acetamide], the Emax came to 136% and the EC50 is under 100 nM.

As for `Cc1ccc(C)c(-c2nn(NC(=O)CC34CC5CC(CC(C5)C3)C4)c(=O)c3ccccc23)c1` [Example 156, 2-(adamantan-1-yl)-N-[4-(2,5-dimethylphenyl)-1-oxophthalazin-2(1H)-yl]acetamide], the Emax was found to be 177% and the half-maximal effective concentration (EC50) lay in the range of 100 to 500 nM.

Turning to `Cc1ccc(C)c(-c2nn(NC(=O)Cc3ccc(Cl)cc3)c(=O)c3ccccc23)c1` [Example 157, 2-(4-chlorophenyl)-N-[4-(2,5-dimethylphenyl)-1-oxophthalazin-2(1H)-yl]acetamide], the Emax turned out to be 155% and the EC50 was 100 to 500 nM.

For `Cc1ccc(C)c(-c2nn(NC(=O)Cc3cc(F)cc(F)c3)c(=O)c3ccccc23)c1` [Example 158, 2-(3,5-difluorophenyl)-N-[4-(2,5-dimethylphenyl)-1-oxophthalazin-2(1H)-yl]acetamide], the Emax turned out to be 167% and the EC50 lay in the range of 100 to 500 nM.
